From US20070134744A1, “Epothilone resistant cell lines” (priority 2000, published 2007)

Columns and labels:
EA40 cells = assay: MTS growth inhibition assay; type: cell-based; conditions: EA40 cells, MTS, 72 hours drug; Table 1
Protocol: Growth inhibition may be analyzed using conventional methods, for example a MTS assay (PROMEGA, Wis.) may be used. In this assay approximately 4000 cells per well are seeded in 96 well plates in MEM supplemented with 10% fetal calf serum and incubated at 37° C. in 5.0% CO2. After 24 hours, dilutions of drug (concentration range used is between 1 nM and 1000 nM) are added and cells are allowed to incubate with drug for an additional 72 hours. The MTS reagent mixed with PMS (MTS:PMS 20:1 according to manufacturer's instructions) is then added and absorbance quantitated using a Thermomax microplate reader system according to conventional methods (Molecular Devices, Sunnyvale, Calif.). […] Six assays per drug per plate are performed. […]
As such, epothilone resistant cells would have some degree of cross-resistance to other P-gp substrates that could be reversed by P-gp inhibitors. To investigate this possibility, the cytotoxicity of the P-gp substrates, vincristine, doxorubicine and vinblastine is determined against epothilone A resistant cells using the MTS assay. […] When EA20 and resistant MDA/T0.3 cells are incubated with TAXOL® or epothilone A in the presence of [3′-Desoxy-3′-oxo-MeBmt]^1-[Val]^2-Ciclosporin (PSC-833; a P-gp inhibitor which is disclosed in U.S. Pat. No. 5,525,590), the resistance of MDA/T0.3 cells to TAXOL® is reversed but no effect on the resistance of EA20 to epothilone A is observed.

KB-8511 cells = type: cell-based, human
Protocol: Data in Table 4 are gathered according to the following methods: Cells (1×10^3) are seeded in 96-well plates and allowed to adhere for 24 hrs. Compounds are then added as two-fold serial dilutions and incubation continued for an additional 72 hrs. Cell numbers at the beginning and at the end of the experiment are estimated by methylene blue staining of cellular protein mass according to conventional methods. The net mass increase of vehicle-treated cells is set as 100% growth. The IC50 is determined as the drug concentration that leads to half-maximal growth inhibition compared to the control. The resistance factor (RF) for a particular drug is calculated by dividing the IC50 determined on the resistant cell line by that determined on the parental KB-31 cells. Data are presented as average±standard deviation (SD) of three separate experiments, except na=not applicable (n<3). Colchicine-selected KB-8511 cells overexpressing P-glycoprotein served as a reference for the classical multi-drug-resistant phenotype.

EA60 cells = assay: Cell cycle analysis by FACS; type: cell-based; conditions: 24 hours, 60 nM epothilone A
Protocol: (§1) Cells are fixed by resuspending in cold 70% ethanol, washing again with 5 ml of PBS and resuspending in PI solution ([…] propidium iodide, 38 mM sodium citrate, 20 μg/ml RNAse A). After incubation in PI solution at 37° C. for 30 minutes, cells are analyzed by flow cytometry according to conventional methodology (apparatus and software commercially available from Becton Dickinson Immunocytometry Systems, CA).
(§2) Cell cycle distribution patterns of epothilone A resistant and parental MDA-MB-435 epothilone A sensitive cells are compared by standard FACS analysis. […] Thus, a significant part of the epothilone A resistant cell population appears to overcome the G2/M block that normally occurs in the cell cycle of epothilone A sensitive cells.

MDA-MB-435 cells = assay: Cell cycle analysis by FACS; type: cell-based; conditions: 24 hours, 20 nM epothilone A
Protocol: as §1, §2

[1] = molecular target: T1, tubulin in 297/C5/0 cell lysates (Homo sapiens, UniProt P07437, T274P); assay: Cell-free tubulin polymerization assay; type: biochemical; conditions: 297/C5/0 lysates, 5 min 37° C., 0-100 μM, vs KB-31
T1 construct: endogenous in cells; host or cells: 297/C5/0 and 298/D4/40 sublines of KB-31 (intact cells or hypotonic lysates)
Protocol: (§3) For the assessment of drug effects on the ratio between unpolymerized and polymerized tubulin in a cell-free system, cells are lysed at the time of drug addition and processed as follows. Cells are seeded and incubated for 18-24 hrs as described above. One plate at a time is then transferred to a dimmed tissue-culture hood and cells are washed twice with 1 ml of room temperature PBS/O. After careful removal of remaining PBS/O, 200 μl of room-temperature HLB/A containing test substances at the desired concentration is added to the cells. Final vehicle concentration is 1%. The plates are wrapped in aluminum foil and incubated for 5 min at 37° C. Lysates are then transferred to eppendorf tubes, vortexed for 5 seconds, followed by centrifugation for 30 minutes at room-temperature in a table-top centrifuge at 12′000×g. Further processing of the samples is performed as described above.
(§4) However, it was not clear from this experiment whether the decrease in epothilone A-mediated tubulin polymerization is due to decreased drug uptake or a genuine defect in tubulin functionality. To address this question, cells are lysed before incubation with epothilone A. Specifically, KB-31, 297/C5/0 and 298/D4/40 cells (2×10^5) are separately seeded in 6-well plates and allowed to adhere for 24 hrs. Cells are then lysed in hypotonic buffer containing 0, 1, 10 or 100 μM epothilone A. Vehicle (DMSO) concentration was 1%. Following incubation for 5 min at 37° C., samples are centrifuged to separate soluble from polymerized tubulin and the levels of unpolymerized tubulin is assessed by Western blotting as described above.

[2] = molecular target: T2, tubulin in 298/D4/40 cell lysates (Homo sapiens, UniProt P07437, T274P); assay: Cell-free tubulin polymerization assay; type: biochemical; conditions: 298/D4/40 lysates, 5 min 37° C., 0-100 μM
T2 construct: endogenous in cells; host or cells: 297/C5/0 and 298/D4/40 sublines of KB-31 (intact cells or hypotonic lysates)
Protocol: as §3, §4

[3] = molecular target: T3, tubulin in KB-31 cell lysates (Homo sapiens, UniProt P07437); assay: Cell-free tubulin polymerization assay; type: biochemical; conditions: KB-31 lysates, 5 min 37° C., 0-100 μM
T3 construct: decrease in the unpolymerized pool of tubulin in KB-31 cell lysates; endogenous in cells; host or cells: KB-31 human epidermoid carcinoma cells (intact cells or hypotonic lysates)
Protocol: as §3, §4

T2 sequence (P07437 whole entry T274P): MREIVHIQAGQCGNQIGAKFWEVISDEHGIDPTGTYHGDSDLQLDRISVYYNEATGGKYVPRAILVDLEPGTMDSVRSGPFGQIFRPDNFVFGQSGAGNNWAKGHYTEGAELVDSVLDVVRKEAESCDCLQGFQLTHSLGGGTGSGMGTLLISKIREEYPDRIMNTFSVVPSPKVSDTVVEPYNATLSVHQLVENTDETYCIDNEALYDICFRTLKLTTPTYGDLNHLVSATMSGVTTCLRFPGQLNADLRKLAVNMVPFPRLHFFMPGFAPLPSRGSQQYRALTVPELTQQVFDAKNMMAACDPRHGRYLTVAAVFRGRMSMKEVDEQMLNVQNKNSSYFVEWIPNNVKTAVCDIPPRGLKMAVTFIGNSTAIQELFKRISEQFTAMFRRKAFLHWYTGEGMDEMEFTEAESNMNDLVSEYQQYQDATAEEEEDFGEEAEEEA
T2 sequence (P68363 whole entry partner): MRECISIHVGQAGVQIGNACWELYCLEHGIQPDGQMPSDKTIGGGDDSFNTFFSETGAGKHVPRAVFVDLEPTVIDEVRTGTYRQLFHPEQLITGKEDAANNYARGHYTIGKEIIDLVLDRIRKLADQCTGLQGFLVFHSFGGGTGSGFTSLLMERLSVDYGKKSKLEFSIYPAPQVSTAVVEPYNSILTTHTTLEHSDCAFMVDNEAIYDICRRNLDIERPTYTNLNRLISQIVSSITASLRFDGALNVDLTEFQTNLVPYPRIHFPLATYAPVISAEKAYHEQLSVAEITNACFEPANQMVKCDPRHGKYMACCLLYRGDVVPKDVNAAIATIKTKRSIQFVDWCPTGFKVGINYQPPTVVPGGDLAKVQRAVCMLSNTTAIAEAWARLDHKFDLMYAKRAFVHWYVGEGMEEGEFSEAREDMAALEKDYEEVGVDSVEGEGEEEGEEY
T1 sequence (P07437 whole entry T274P): as the sequence (P07437 whole entry T274P) above
T1 sequence (P68363 whole entry partner): as the sequence (P68363 whole entry partner) above
T3 sequence (P68363 whole entry): as the sequence (P68363 whole entry partner) above
T3 sequence (P07437 whole entry): as the sequence (P07437 whole entry T274P) above, with P274T counted along it

## C/C(=C\c1csc(C)n1)[C@@H]1C[C@@H]2O[C@@H]2CCC[C@H](C)[C@H](O)[C@@H](C)C(=O)C(C)(C)[C@@H](O)CC(=O)O1 [Epothilone A, epothilone A]
EA40 cells
  IC50: 36 ± 2 nM
KB-8511 cells; KB-8511 (Colch selected), 72 hrs, average of three experiments
  RF (resistance factor: IC50 resistant cell line / IC50 parental KB-31): 0.7
KB-8511 cells; KB-8511 vs parental KB-31
  resistance profile in words: retain full activity
EA60 cells
  cell cycle distribution: overcomes the G2/M phase block
MDA-MB-435 cells
  cell cycle distribution: blocked at the G2/M phase
[1]
  dose-response curve for unpolymerized tubulin in cell lysates: shifted to higher concentrations
[2]
  changes in unpolymerized tubulin in cell lysates: completely refractory
[3]
  unpolymerized tubulin in cell lysates: dose-dependent decrease in the unpolymerized pool of tubulin
